Measured values: patent US10232021B2, “Calcitonin mimetics for treating diseases and disorders” (KEYBIOSCIENCE AG, priority 2013, dated 2019)
Bridges are numbered along the chain shown (N, C = ends).

Columns and labels:
[1] = Single-dose food intake in obese High-Fat-Diet rats; format: in vivo; details: single subcutaneous dose 1.25, 2.5, 5 μg/kg; obese rats fasted overnight
Description: Rats were fed a High-Fat-Diet for 14 weeks prior to the experiment to induce obesity.
Further similar studies were undertaken over different time periods and with different peptides and the results are seen in FIG. 10 and FIGS. 11A-11B. The ability of KBP089 to suppress food intake over 72 hours was compared to that of KBP042 as control and the results are seen in FIG. 10.

[2] = biological target: T1, Amylin Receptor (AMY-R) (Homo sapiens, UniProt P30988); experiment: Competitive ligand binding against 125I-sCT on AMY-R cells; details: CHO-K1 CALCR+RAMP3 cells; 0.1 nM 125I-sCT; 60 min, 37° C.
T1 construct: host or cells: CHO-K1
T1 sequence (P30988 25-474): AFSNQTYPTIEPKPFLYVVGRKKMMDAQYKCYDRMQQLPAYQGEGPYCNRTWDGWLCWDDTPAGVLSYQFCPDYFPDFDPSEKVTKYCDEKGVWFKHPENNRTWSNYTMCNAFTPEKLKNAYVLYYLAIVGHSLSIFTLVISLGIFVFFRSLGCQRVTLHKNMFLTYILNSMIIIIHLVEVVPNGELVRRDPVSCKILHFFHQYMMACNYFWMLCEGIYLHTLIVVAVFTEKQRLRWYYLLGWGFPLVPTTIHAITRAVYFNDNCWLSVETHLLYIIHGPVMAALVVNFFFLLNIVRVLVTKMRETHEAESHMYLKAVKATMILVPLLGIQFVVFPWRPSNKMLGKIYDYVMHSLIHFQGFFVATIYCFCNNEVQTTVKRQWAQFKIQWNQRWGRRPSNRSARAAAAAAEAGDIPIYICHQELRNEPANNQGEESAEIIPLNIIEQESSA
T1 sequence (O60896 24-148 partner): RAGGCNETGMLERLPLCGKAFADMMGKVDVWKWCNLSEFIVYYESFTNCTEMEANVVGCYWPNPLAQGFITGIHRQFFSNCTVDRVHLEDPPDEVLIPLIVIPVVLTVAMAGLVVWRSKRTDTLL
From the text: (§1) The following cell lines expressing the calcitonin, amylin and CGRP receptors were purchased and cultured according to the manufacturer's instructions. • 1. Calcitonin Receptor (CTR): U20S-CALCR from DiscoveRx (Cat. No.: 93-0566C3). • 2. Amylin Receptor (AMY-R): CHO-K1 CALCR+RAMP3 from DiscoveRx (Cat. No.: 93-0268C2). • 3. CGRP Receptor (CGRP-R): CHO-K1 CALCRL+RAMP1 from DiscoveRx (Cat. No.: 93-0269C2).
(§2) Corresponding to the beta-arrestin induction experiments, we performed competitive ligand binding experiments using the cells expressing the CTR and the AMY-R. In studying ligand binding on cells, 15.000 CTR or AMY-R cells were seeded in 96-well plate and cells were treated with 0.1 nM ^125I-conjugated sCT with or without the presence of unlabelled KBP in increasing doses for 60 min at 37° C. After incubation the supernatant was removed and cells were washed twice in 200 μl PBS. The cells were lysed using RIPA‡ buffer (30 mM M NaCl, 50 mM Tris-HCl, 5 mM EDTA, 1% Deoxycholic acid, […], Protease inhibitor tablet mini (1 tablet:10 ml)) and lysates as well were collected for measurement on a γ-counter.

[3] = biological target: T1, Amylin Receptor (AMY-R); experiment: PathHunter β-arrestin assay on the amylin receptor; format: cell-based; details: CHO-K1 CALCR+RAMP3 cells
Description: as §1
In independent bioassays, CTR, AMY-R and CGRP-R cells were treated with for the indicated timepoints with increasing doses of sCT, UGP-302/KBP-042 or the KBPs identified in Table 3 (0, 0.001, 0.01, 0.1, 1, 10, and 100 nM). […]
In this system, the GPCR is fused in frame with the small enzyme fragment ProLink™ and co-expressed in cells stably expressing a fusion protein of β-Arrestin and the larger, N-terminal deletion mutant of β-gal (called enzyme acceptor or EA). […] This interaction leads to an increase in enzyme activity that can be measured using chemiluminescent PathHunter® Detection Reagents.
The assay was performed in white 384 well plates (Greiner Bio-One, 784080). […] To quantify the GPCR-mediated β-arrestin recruitment the Pathhunter™ Detection Kit (93-0001, DiscoverX) was used and assay performed accordingly to the manufacturer's instructions.

[4] = biological target: T2, Calcitonin Receptor (CTR) (Homo sapiens, UniProt P30988); experiment: Competitive ligand binding against 125I-sCT on CTR cells; details: U20S-CALCR cells; 0.1 nM 125I-sCT; 60 min, 37° C.
T2 construct: host or cells: U2OS
T2 sequence (P30988 25-474): T1 sequence (P30988 25-474)
From the text: as §1, §2

[5] = Three-week treatment of ZDF rats: fasting plasma glucose and HbA1c; format: in vivo, male ZDF (fa/fa) rats; details: 5 μg/kg/day subcutaneously once daily, 3 weeks
Description: To assess the effects of the peptides in relation to regulation of blood glucose levels, male ZDF rats, which are the gold standard model of Type 2 Diabetes were treated for 3 weeks with the 3 most promising KBPs (023, 056 and 088) and an active comparator (UGP302/KBP-042). Male ZDF (fa/fa) rats were obtained at the age of 7 weeks from Charles River Laboratories (Kisslegg, Deutschland). All animals were housed at the animal facility at Nordic Bioscience with a constant temperature (21-23° C.) and relative humidity (55-65%) on a 12 h light/dark cycle with free access to Purina 5008 rat chow (Brogaarden, Lynge, Denmark) and tap water. At the age of 8 weeks, the animals were randomized into five groups of 8 rats each based upon fasting blood glucose and body weight (Vehicle (saline), UGP302/KBP-042 5 μg/kg/day, KBP-023 5 μg/kg/day, KBP-056 5 μg/kg/day and KBP-088 5 μg/kg/day) and dosing was done subcutaneously once daily. The animals were treated for a total of 3 weeks to assess the effect of the peptides on fasting blood glucose. Blood glucose was monitored using the Accu-Check® Avia monitoring system (Roche Diagnostics, Rotkreuz, Switzerland) and HbA1c levels by the DCA Vantage™ Analyzer (Siemens Healthcare Diagnostics, Deerfield, Ill.).

KBP-088: SEQ ID NO: 12; AcCSNLSTCMLGRLSQELHRLQTFPKTDVGANAP-NH2, Cys1-Cys7 disulphide bridge (Ac-CSNLSTCMLGRLSQELHRLQTFPKTDVGANAP-NH2; disulfide 1-7; SMILES CSCC[C@H](NC(=O)[C@@H]1CSSC[C@H](NC(C)=O)C(=O)N[C@@H](CO)C(=O)N[C@@H](CC(N)=O)C(=O)N[C@@H](CC(C)C)C(=O)N[C@@H](CO)C(=O)N[C@@H]([C@@H](C)O)C(=O)N1)C(=O)N[C@@H](CC(C)C)C(=O)NCC(=O)N[C@@H](CCCNC(=N)N)C(=O)N[C@@H](CC(C)C)C(=O)N[C@@H](CO)C(=O)N[C@@H](CCC(N)=O)C(=O)N[C@@H](CCC(=O)O)C(=O)N[C@@H](CC(C)C)C(=O)N[C@@H](Cc1c[nH]cn1)C(=O)N[C@@H](CCCNC(=N)N)C(=O)N[C@@H](CC(C)C)C(=O)N[C@@H](CCC(N)=O)C(=O)N[C@H](C(=O)N[C@@H](Cc1ccccc1)C(=O)N1CCC[C@H]1C(=O)N[C@@H](CCCCN)C(=O)N[C@H](C(=O)N[C@@H](CC(=O)O)C(=O)N[C@H](C(=O)NCC(=O)N[C@@H](C)C(=O)N[C@@H](CC(N)=O)C(=O)N[C@@H](C)C(=O)N1CCC[C@H]1C(N)=O)C(C)C)[C@@H](C)O)[C@@H](C)O)
food intake, 0-4 hours [1]: led to a reduction in food intake
food intake, 4-24 hours [1]: the effect was maintained to 24 hours
food intake, 24-48 hours [1]: only KBP-089 led to a reduction in food intake
competitive binding affinity on the AMY-R [2]: better than the other ligands, particularly on the AMY-R
activation of the AMY-R (β-arrestin dose-response) [3]: more potent that the classical AMY-R agonist sCT
competitive binding affinity on the CTR [4]: better than the other ligands
HbA1c [5]: highly active
fasting plasma glucose (FPG) [5]: highly active
